Here are results for two compounds from patent publication US20260198497A1, “A BENZENE RING-SUBSTITUTED PYRIMIDINECARBOXYLIC ACID COMPOUND, PREPARATION METHOD THEREFOR, HERBICIDAL COMPOSITION AND APPLICATION THEREOF” (QINGDAO KINGAGROOT CHEMICAL COMPOUND CO., LTD., priority 2023, published 2026).

For series [1], the system named is Lindernia procumbens. Description: Activity assay of compositions, post-emergence spray of stems and leaves. The format is in vivo. Particulars: for Control effect of B applied alone in a corresponding dose (%): 21 days. From the text:
(§1) The required active ingredient B was purchased from a reagent company or a technical material manufacturer or synthesized by a conventional method. The active ingredient A was Compound 74 in Table 1. The technical materials were all dissolved with acetone solvents and diluted with aqueous solution of 0.1% Tween® 80 emulsifier, which should be used immediately after dilution.
(§2) Weeds were cultivated by a pot culture method. […] Weed seeds with plump and uniform grains were selected, soaked in lukewarm water at 25° C. for 6 hours, and accelerated to germinate in a 28° C. biochemical incubator (in darkness). The weed seeds that had just germinated were evenly placed on the surface of the soil and then covered with 0.5-1 cm soil according to the sizes of seeds.
(§3) The weeds were cultured in a controllable sunlight greenhouse at 20-30° C., in natural light, and with relative humidity of 57%-72%. The soil was loam with an organic matter content of 1.63%, a pH value of 7.1, alkali-hydrolyzable nitrogen of 84.3 mg/kg, rapidly available phosphorus of 38.5 mg/kg, and rapidly available potassium of 82.1 mg/kg.
(§4) Each treatment was repeated 4 times for 3 pots. Each pot was seeded with 20 weed seeds.
(§5) The drugs were applied once in total in the experiment. When at the stage of 1.5-2 leaves, the weeds were thinned out to maintain 10 strains per pot. Thirty strains were kept in each treatment and then continued to be cultured until the Erigeron canadensis reached 10 cm tall and other weeds in their 3-4 leaf stage for further treatment.
(§6) The well-cultured test materials were evenly placed on a 0.5 m^2 platform and foliage-sprayed by the 3WP-2000-type walking spray tower at a dosage of […] and a spray pressure of 0.3 MPa. After all the drug solution was sprayed, the air valve was closed. And 30 seconds later, the door of the spray tower was opened, and the nutritional bowl was taken out. Next, the air valve was opened, and the spray tube was cleaned by spraying 50 ml of water. The test materials were transferred to and routinely cultured in a greenhouse after the treatment.
(§7) A method for investigating absolute numbers was employed. The whole seedlings of the survival weeds were cut along the soil surface with a blade, and the fresh weight of the weeds was weighed by an analytical balance. For dead weeds, the fresh weight thereof was considered zero.
(§8) The investigation was performed 21 days after the treatment for once in total.
(§9) The theoretical fresh weight inhibition rate of a mixed combination of each treatment was calculated by the Gowing method (E0=X+Y−X*Y/100). Then compared with the measured inhibition rate (E), the type of the combined action of the combination of the two on weeds was evaluated, which was a synergistic effect when E−E0>10; an antagonistic effect when E−E0<−10%; an additional effect when −10≤E−E0≤[…]. An optimal ratio was determined according to factors such as the actual control effects, characteristics of herbicides, balance of the formulation, etc. In the formula, X represents the fresh weight inhibition rate of the active ingredient A in a dosage of P; Y represents the fresh weight inhibition rate of the active ingredient B in a dosage of Q. The statistical results are shown in Table 5 below.

Series [2] relates to Monochoria vaginalis. Described as above. The format is in vivo. Particulars: A 3 g a.i./ha, fresh weight inhibition, 21 days after treatment. On the procedure:
(§10) The required active ingredient B was purchased from a reagent company or a technical material manufacturer or synthesized by a conventional method. […] The technical materials were all dissolved with acetone solvents and diluted with aqueous solution of 0.1% Tween® 80 emulsifier, which should be used immediately after dilution.
as §2, §3, §4, §5, §6, §7, §8, §9

Series [3] has as its system Wheat. Kind of series: Post-emergence test, crop safety. Particulars: in vivo, 3 weeks. From the text:
(§11) The criteria for activity levels of plant damage (i.e., growth control rate) are as follows: • Level 9: completely dead; • Level 8: growth control rate is greater than or equal to 90% and less than 100%; • Level 7: growth control rate is greater than or equal to 80% and less than 90%; • Level 6: growth control rate is greater than or equal to 70% and less than 80%; • Level 5: growth control rate is greater than or equal to 50% and less than 70%; • Level 4: growth control rate is greater than or equal to 30% and less than 50%; • Level 3: growth control rate is greater than or equal to 20% and less than 30%; • Level 2: growth control rate is greater than or equal to 10% and less than 20%; • Level 1: growth control rate is less than 10%; • Level 0: no effect.
(§12) The above growth control rates are fresh weight control rates.
(§13) Monocotyledonous and dicotyledonous weed seeds (Descurainia sophia, Capsella bursa-pastoris, Abutilon theophrasti, Galium spurium, Stellaria media, Lithospermum arvense, Rorippa indica, Alopecurus aequalis, Alopecurus japonicus, Eleusine indica, Beckmannia syzigachne, Sclerochloa dura, Erigeron canadensis, Phleum paniculatum, Veronica, Bromus japonicus, Aegilops tauschii, Phalaris arundinacea, Amaranthus retroflexus, Chenopodium, Commelina communis, Cichorium endivia, Convolvulus arvensis, Cirsium arvense, Solanum nigrum, Acalypha australis, Digitaria sanguinalis, Echinochloa crusgalli, Setaria viridis, Setaria pumila, Leptochloa chinensis, Monochoria vaginalis, Sagittaria trifolia, Schoenoplectiella juncoides, Cyperus rotundus, Cyperus iria, Cyperus difformis, Fimbristylis, Portulaca oleracea, Xanthium sibiricum, Ipomoea nil, Eschenbachia japonica, etc.) and major crop seeds (wheat, maize, paddy rice, soybean, cotton, oilseed rape, millet, sorghum, potato, sesame, castor plant, Chinese cabbage, radish, etc.) were placed in plastic pots filled with soil and then covered with 0.5-2 cm of soil to allow them to grow in a favorable greenhouse environment. Two weeks after sowing, the test plants were treated at the stage of 2-3 leaves. The test compounds of the present invention were individually dissolved with acetone, then added with Tween® 80, with 1.5 L/ha of methyl oleate emulsifiable concentrate as a synergist, diluted into solution of a certain concentration using a certain amount of water, and sprayed to plants using a spray tower. After drug application, the experimental results on weeds were collected after 3 weeks of cultivation in a greenhouse. The compounds were applied at 120, 60, 30, and 15 g a.i./ha in triplicate, and the results were averaged.

Series [4] deals with Paddy rice. Kind of series: Post-emergence test, crop safety. Particulars: in vivo, 3 weeks.
Source text: as §11, §12, §13

For series [5], the system named is Radish. Kind of series: Post-emergence test, crop safety. Particulars: in vivo, 3 weeks.
Source text: as §11, §12, §13

The subject of series [6] is Oilseed rape. Kind of series: Post-emergence test, crop safety. Particulars: in vivo, 3 weeks.
Source text: as §11, §12, §13

Series [7] has as its system Maize. Kind of series: Post-emergence test, crop safety. Particulars: in vivo, 3 weeks.
Source text: as §11, §12, §13

In series [8] the test system is Chinese cabbage. Description: Post-emergence test, crop safety. Particulars: in vivo, 3 weeks.
Source text: as §11, §12, §13

The test system of series [9] is Veronica. Kind of series: Post-emergence test on weeds. Further details: key: 0 = no effect, 9 = completely dead (levels by growth control rate). The following applies: 30 g a.i./ha, 3 weeks after application. The format is in vivo. Put shortly: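 Damage score 0 (no effect) to 9 (dead), based on fresh-weight growth control rate, recorded 3 weeks after spraying. Plants treated post-emergence at 2-3 leaves via spray tower at 15-120 g a.i./ha. Methyl oleate EC 1.5 L/ha added as synergist; triplicate, averaged.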

Series [10] relates to Veronica. Description: Activity assay of compositions, post-emergence spray of stems and leaves. The format is in vivo. The following applies: A 3 g a.i./ha, fresh weight inhibition, 21 days after treatment. On the procedure:
as §10, §2, §4, §5, §6, §7, §8
The theoretical fresh weight inhibition rate of a mixed combination of each treatment was calculated by the Gowing method (E0=X+Y−X*Y/100). […] An optimal ratio was determined according to factors such as the actual control effects, characteristics of herbicides, balance of the formulation, etc. In the formula, X represents the fresh weight inhibition rate of the active ingredient A in a dosage of P; Y represents the fresh weight inhibition rate of the active ingredient B in a dosage of Q. The statistical results are shown in Table 5 below.

Series [11] deals with Euphorbia helioscopia. The description is as above. The format is in vivo. The following applies: A 3 g a.i./ha, fresh weight inhibition, 21 days after treatment, listed as A.
Source text: as §1, §2, §3, §4, §5, §6, §7, §8, §9

On to `CC(C)C12CCC(C)(O1)C(OCc1c(F)cccc1Br)C2` (stereo not shown), for which the “Control effect of B applied alone in a corresponding dose (%)” value in series [1] (B 7.5 g a.i./ha) came out at 42.8%; in [1] (B 15 g a.i./ha), 60.7%.
In the case of `COCCOC(=O)c1nc(-c2ccc(C(F)(F)F)c(OC)c2F)nc(N)c1OC` [Compound 74], the “Control effect of A applied alone in a corresponding dose (%)” value in [2] is on record as 66.4%; in series [10], 62.3%; in series [1] (A 3 g a.i./ha, fresh weight inhibition, 21 days after treatment) it was 37.7%; in series [11] it was 58.0%. The “activity level of plant damage (growth control rate), Wheat” value in series [3] was 0. For the same compound, the “activity level of plant damage (growth control rate), Paddy rice” value in series [4] turned out to be 0. For the same compound, in [5], the “activity level of plant damage (growth control rate), Radish” value stood at 0. Besides, in series [6], the “activity level of plant damage (growth control rate), Oilseed rape” value is 0. For the same compound, the “activity level of plant damage (growth control rate), Maize” value in series [7] was 0. The “activity level of plant damage (growth control rate), Chinese cabbage” value in series [8] is listed as 0. In [9], the “activity level of plant damage (growth control rate), Veronica” value came out at 9.
